Measurements published in patent publication US10765670B2, “Use of anti-connexin agents for enhancing the therapeutic effect of acetylcholinesterase inhibitors” (COMMISSARIAT A L'ENERGIE ATOMIQUE ET AUX ENERGIES …, priority 2011, dated 2020).
Marks after values point to notes of the source that are not given here.

Key:
rodents = details: MFA 1 mg/kg, previously described; cited from earlier work
[1] = test system: C57bl/6 male mice, 17-18-month old; assay: Behavioral test of working memory, T-maze spontaneous alternation (SA-task) in elderly mice; format: in vivo; details: for promnesiant effect (increase of total alternation, FIG. 2) / total alternation in T-maze (FIG. 2): elderly mice; for SA-task relative to vehicles (mean percentage of alternation relative to vehicles over the seven trials): 30 min before T-maze, 17-18-month old mice
Source text: The alternating sequential test is widely used to assess spatial working memory in mice (Beracochea D. J. and Jaffard R., Behav. Neurosci. 101 (1987) 187-97). Spontaneous alternation is the innate tendency of rodents to alternate their choices to enter into the compartments of arrival of a T-maze device, over successive trials. To alternate during a given trial N, the animal must remember the choice made selectively in test N−1, so the decline in alternating will reflect the phenomenon of oblivion. The response in alternating is performance measure. Sequential alternating assess more specifically the sensitivity to interference, a major factor in oblivion.
The experiment took place in a T-maze (50 cm×10 cm×25 cm). All the subjects (C57bl/6 male mice, 17-18-month old, n=9) were given 7 successive trials separated by a 90-s intertrial interval. To begin a trial, the mouse was placed in the start box for 90 s before the door to the stem was opened. When the subject entered one of the goal arms, the door to that arm was closed. The chosen arm and the time that elapsed between opening the door and the arrival to the end of the chosen arm (task achievement time) were registered. Following a 30-s confinement period in the chosen arm, the animal was removed and placed in the start box for a new trial. Between each test, the unit was cleaned with water and alcohol to avoid olfactory detection. An alternation response was considered each time the subject entered the arm opposite to the one visited on the immediately previous trial. Alternation rate was calculated taking into account the 6 successive trials, and expressed in percentage relative to the maximal alternation rate of 100% (obtained when the subject never returned into the same arm for two consecutive trials).
C57BL/6 mice of 17 to 18 months (“elderly” mice) were intraperitoneally injected with a solution of NaCl (vehicle), donepezil (DZP), meclofenamic acid (MFA) or a combination of these two latter compounds, 30 minutes before T-maze experiment.
Thirty minutes after treatment (NaCl, donepezil, MFA), “elderly” mice are placed in the T-maze device. The percentage of alternation was measured for 7 consecutive trials, 50% corresponding to a random alternation.

male C57bl/6 mice = assay: Electro-encephalographic recording of hippocampal theta activity in mice; format: in vivo; details: for EEG Relative power to vehicles (relative power of hippocampal theta rhythm): n=7
Description: Electrophysiological effects of donepezil were evaluated by analysis of hippocampal electroencephalographic activity (EEG) as described previously in WO2010/029131. Briefly, the assay is as follows:
Two groups of male C57bl/6 mice (seven mice from 4 to 5 month old and seven mice from 17 to 18 month old) were pre-implanted with bilateral hippocampal bipolar electrodes under isoflurane anaesthesia. A two-week period of recovery was realized before recordings.
Different intraperitoneal treatments were performed by circular combination of 7 mice per treatment (donepezil 0.1 and 0.3 mg/kg, meclofenamic 1 mg/kg, donepezil 0.1 mg/kg+MFA 1 mg/kg).
EEG measures were performed on different batches of awoke mice (previously implanted and tamed) by recordings two hours after injection. The spectral analysis is carried out by Fourier transform (FFT) and allows the calculation of the relative powers for each Hertz and each second. FFT data are then averaged minute by minute and reported to control solvent recording realized on the day before in strictly identical experimental conditions. The spectral powers of two hippocampal electrodes are then averaged between 3 and 12 Hertz and represented hourly.
At day 1, saline was administered intraperitoneally to “adult” or “elderly” mice (n=7), and θ-hippocampal activity was measured for two consecutive hours. On day 2, donepezil alone or in combination with MFA is injected, and θ-hippocampal activity is related to that measured on day 1.

[2] = Wagner C. et al 2007; cited from earlier work

SMILES	effect on the electroencephalographic signal (rodents)	promnesiant effect (increase of total alternation, FIG. 2) ([1]; MFA alone 1 mg/kg i.p.)	alternation by blocks of two trials (FIG. 3) ([1]; MFA alone 1 mg/kg i.p., three blocks of trials)	effect on EEG (θ-hippocampal activity) (male C57bl/6 mice; MFA alone 1 mg/kg i.p.)	dose at which the anti-inflammatory effect is observed in vivo [2]	SA-task relative to vehicles (mean percentage of alternation relative to vehicles over the seven trials) ([1]; donepezil 0.1 mg/kg i.p.) [%]	promnesiant effect (increase of total alternation, FIG. 2) ([1]; donepezil 0.1 mg/kg i.p.)	alternation by blocks of two trials (FIG. 3), memory interference ([1]; donepezil 0.1 mg/kg i.p., third block (trials 6 and 7))	SA-task relative to vehicles (mean percentage of alternation relative to vehicles over the seven trials) ([1]; donepezil 0.3 mg/kg i.p., p<0.01) [%**]	promnesiant effect (increase of total alternation, FIG. 2) ([1]; donepezil 0.3 mg/kg i.p.)	promnesiant effect (increase of total alternation, FIG. 2) ([1]; donepezil 1 mg/kg i.p.)	total alternation in T-maze (FIG. 2) ([1]; donepezil alone 0.3 mg/kg i.p.)	total alternation in T-maze (FIG. 2) ([1]; donepezil alone 1 mg/kg i.p.)	response of θ-hippocampal activity (FIG. 1) (male C57bl/6 mice; 4-5-month old mice, donepezil 0.1 mg/kg i.p.)	response of θ-hippocampal activity (FIG. 1) (male C57bl/6 mice; 4-5-month old mice, donepezil 0.3 mg/kg i.p.)	response of θ-hippocampal activity (FIG. 1) (male C57bl/6 mice; 17-18-month old mice, donepezil 0.3 mg/kg i.p., second hour of recording)	EEG Relative power to vehicles (relative power of hippocampal theta rhythm) (male C57bl/6 mice; donepezil 0.1 mg/kg intraperitoneal)	EEG Relative power to vehicles (relative power of hippocampal theta rhythm) (male C57bl/6 mice; donepezil 0.3 mg/kg intraperitoneal)
Cc1ccc(Cl)c(Nc2ccccc2C(=O)O)c1Cl [MFA, Benzoic 2-[(2,6-di-chloro-3-phenyl)amino] acid]	not affecting the electroencephalographic signal	no promnesiant effect significant	no significant effect	no effect by its own	approximately 5 mg/kg/day													
COc1cc2c(cc1OC)C(=O)C(CC1CCN(Cc3ccccc3)CC1)C2 (stereo not drawn) [donepezil, 2,3-dihydro-5,6-dimethoxy-2-[[1-(phenylmethyl)-4-piperidinyl]methyl]-1H-i-nden-1-one]						35	no significant promnesiant effect	partially counteract the interference phenomenon	48	significant promnesiant effect	significant promnesiant effect	around 75%	around 75%	do not respond significantly	do not respond significantly	an effect	1	1
